In patent US20140024700A1, “BLOOD-BORNE MIRNAS AS SURROGATE MARKERS OF DRUG EFFICACY FOR CARDIAC CONDITIONS” (miRagen Therapeutics, Inc., priority 2010, published 2014):
Entries after “also recorded” stand apart in the source; their conditions may differ.

Legend:
plasma miRNAs = assay: Real-time PCR of plasma miRNAs, 4% NaCl diet (Example 1); format: in vivo, rat
Text: Detection of miRNAs in plasma during various disease settings is showing increasing diagnostic promise (Cortez M A and Calin G A (2009) Expert Opin Biol Ther. 9, 703-711). To determine whether there is a specific miRNA that correlates with antimiR-208a efficacy, we examined a panel of muscle related miRNAs during HS treatment.
RNA from plasma samples was isolated using Trizol LS Reagent (Invitrogen), using the manufacturer's protocol. Prior to RNA isolation, […] of two different synthetic C. elegans miRNA sequences were added to serve as internal controls for normalization of target miRNAs. The C. elegans sequences used were cel-miR-2 ([…], SEQ ID NO:5), and cel-lin-4 ([…]; SEQ ID NO:6) (Dharmacon). The final RNA pellet was re-suspended in a final volume equal to the initial plasma volume and 5 μl was used for subsequent RT-PCR reactions, as described above.

Dahl salt-sensitive rats = assay: Dahl salt-sensitive rat model, 4% NaCl diet: body weight, echocardiography, histology (Example 1); format: in vivo; settings: 4% NaCl HS diet
Method: To obtain additional insight into the basis for the protective effects seen in response to antimiR-208a, subsequent studies were done using a 4.0% NaCl diet, during which the rats received saline, 5 or 25 mg/kg of antimiR-208a, or 25 mg/kg of antimiR control every 2 weeks.
The LNA-antimiR oligonucleotides were synthesized at miRagen Therapeutics, Inc. as unconjugated and fully phosphorothiolated oligonucleotides perfectly complementary to the 5′ region of the mature miR-208a sequence. The LNA control oligonucleotide consisted of a sequence directed against a C. elegans specific miRNA. Unless otherwise indicated, in vivo delivery of the oligonucleotide chemistries was achieved by low pressure intravenous (i.v.) injections via the tail vein or subcutaneous injections of either adult male C56B16 mice or adult male Dahl Salt-sensitive rats (Harlan, Indianapolis). […] Tissue samples were collected at the indicated timepoints for molecular or histological examination. Dahl rats were maintained on 0.25 NaCl or placed on 4% or 8% NaCl diet at 8 weeks of age (Harlan, Indianapolis).

[1] = 8 weeks, histological quantification, listed as antimiR-208a
[2] = 8 weeks after HS diet, vs HS/saline, listed as antimiR-208a

M-10101: antimiR targeting bases 2 to 17 of mature miR-208a, LNA and DNA linked by phosphorothioate bonds; 5′-CTTTTTGCTCGTCTTA-3′ (SEQ ID NO: 12) (all phosphorothioate, sugars by position and methylation of C not given here; LNA/DNA mixmer; listed as Homo sapiens)
Plasma miR-499 (plasma miRNAs; 8 weeks after start of 4% HS diet, 7 weeks after onset of antimiR treatment, listed as antimiR-208a): significantly reduced; also recorded: significantly lowers
Plasma miR-423-5p (plasma miRNAs; 8 weeks after start of 4% HS diet, listed as antimiR-208a): reduced; also recorded: decrease
Plasma miR-1 (plasma miRNAs; Dahl hypertensive rats): no response
Plasma miR-208a (plasma miRNAs; Dahl hypertensive rats): no response
Cardiomyocyte hypertrophy (cardiomyocyte size) (Dahl salt-sensitive rats; [1]): significant reduction in cardiomyocyte hypertrophy; also recorded: significantly less hypertrophy
Periarteriolar (perivascular) fibrosis, Picrosirius Red staining (Dahl salt-sensitive rats; [1]): reduced periarteriolar fibrosis; also recorded: significantly less hypertrophy and fibrosis
Body weight gain (Dahl salt-sensitive rats; 5 or 25 mg/kg every 2 weeks, listed as antimiR-208a): maintained their increase in weight gain; also recorded: sufficient to maintain weight gain comparable to that in animals on a normal diet
Isovolumic relaxation time (IVRT), echocardiography (Dahl salt-sensitive rats; [2]): significant dose-dependent reduction; also recorded: significantly improved
Mitral valve early to active filling velocity ratio (MV E/A) (Dahl salt-sensitive rats; [2]): normalization; also recorded: significantly improved
Isovolumic relaxation time, time-dependent echocardiography (Dahl salt-sensitive rats; every 2 weeks after HS diet, vs HS/saline, data not shown): significant reductions in isovolumic relaxation time
